Data: ChEMBL document CHEMBL1124708, “Glycolipids as host resistance stimulators” (1990)
“And” between values parts separate entries of the source, which are not always exact repeats. Equal values may be shown once.

Columns and labels:
Pseudomonas aeruginosa [1] = assay: Protective index against Pseudomonas aeruginosa after 40 mg/kg subcutaneous administration pretreated 250 mg/kg cytoxan intraperitoneal on day -4.; assay type: functional
[2] = (§1) Log value of the protective index was calculated; assay type: functional
Pseudomonas aeruginosa [3] = assay: (§2) No of CFU was determined that cause 50% lethality against Pseudomonas aeruginosa after 40 mg/kg sc administration; assay type: functional; details: route subcutaneous
Mus musculus [4] = assay: Protective index of Pseudomonas aeruginosa after 40 mg/kg sc administration pretreated 250 mg/kg cytoxan ip on day -7; assay type: functional
Mus musculus [5] = assay: Protective index of Pseudomonas aeruginosa after 40 mg/kg im administration pretreated 250 mg/kg cytoxan ip on day -2; assay type: functional
Mus musculus [6] = assay: protective index of Pseudomonas aeruginosa after 40 mg/kg im administration pretreated 250 mg/kg cytoxan ip on day -1; assay type: functional
Mus musculus [7] = assay: Protective index of Pseudomonas aeruginosa after 40 mg/kg im administration pretreated 250 mg/kg cytoxan ip on day -1; assay type: functional
Mus musculus [8] = assay: Protective index of Pseudomonas aeruginosa after 4 mg/kg sc administration pretreated 250 mg/kg cytoxan ip; assay type: functional
Mus musculus [9] = species: Mus musculus; assay: as §1; assay type: functional, organism-based
[10] = as §1
Mus musculus [11] = assay: Protective index Pseudomonas aeruginosa after 40 mg/kg sc administration pretreated 250 mg/kg cytoxan ip on day -4.; assay type: functional
Mus musculus [12] = assay: as §2; assay type: functional; details: route subcutaneous
Mus musculus [13] = assay: No of CFU was determined that cause 50% lethality against Pseudomonas aeruginosa after 40 mg/kg ip administration; assay type: functional; details: route intraperitoneal
Mus musculus [14] = assay: Protective index of Pseudomonas aeruginosa after 40 mg/kg ip administration pretreated 250 mg/kg cytoxan ip on day -4.; assay type: functional
Mus musculus [15] = assay: Protective index of Pseudomonas aeruginosa after 40 mg/kg sc administration pretreated 250 mg/kg cytoxan ip on day -4.; assay type: functional

For `CC(C)CCCC(C)C1CCC2C3CC=C4CC(OCCCCCCCCSC5OC(CO)C(O)C(O)C5O)CCC4(C)C3CCC12C` (configuration not stated), the PI (Pseudomonas aeruginosa [1]) was 0.58.

For `CC(C)CCCC(C)[C@H]1CC[C@H]2C3CC=C4C[C@@H](OCCCCCCS[C@@H]5O[C@@H](CO)[C@@H](O)[C@H](O)[C@@H]5O)CC[C@]4(C)[C@H]3CC[C@]12C` (stereo in doubt; form 1) [listing 1 of 2 here], the Log PI [2] was 0.

With `CC(=O)NC1C(SCCCCCCOC2CCC3(C)C(=CCC4C3CCC3(C)C(C(C)CCCC(C)C)CCC43)C2)OC(CO)C(O)C1O` (stereo in doubt; form 2) [listing 1 of 2 here] the Log PI [2] was 0.

For `CC(=O)NC1C(SCCCCCCOC2CCC3(C)C(=CCC4C3CCC3(C)C(C(C)CCCC(C)C)CCC43)C2)OC(CO)C(O)C1O` (stereo in doubt; form 2) [listing 2 of 2 here], the “No. of Colony forming Units” value (Pseudomonas aeruginosa [3]; 40 mg/kg) was 56.7 and 75.

For `CC(C)CCCC(C)C1CCC2C3CC=C4CC(OCCCCCCSC5OC(CN)C(O)C(O)C5O)CCC4(C)C3CCC12C` (configuration not stated), the PI (Pseudomonas aeruginosa [1]) was 0.98.

`CC(C)CCCC(C)C1CCC2C3CC=C4CC(OCCCCCCSC5OCC(O)C(O)C5O)CCC4(C)C3CCC12C` (configuration not stated) gave a PI (Pseudomonas aeruginosa [1]) of 1.01.

With `CC(=O)N[C@H]1C(O)O[C@@H](COC(=O)[C@H]2CC[C@@]3(C)C(=CC[C@H]4[C@@H]5CC[C@H]([C@H](C)CCCC(C)C)[C@@]5(C)CC[C@@H]43)C2)[C@@H](O)[C@@H]1O[C@@H](C)C(=O)N[C@@H](C)C(=O)N[C@@H](CCC(=O)O)C(N)=O` (some centres not stated) the PI (Pseudomonas aeruginosa [1]) was 1000 and the “No. of Colony forming Units” value (Pseudomonas aeruginosa [3]) was 16000.

In the case of `CC(=O)NC1C(SCCCCCCOC2CCC3(C)C(=CCC4C3CCC3(C)C(C(C)CCCC(C)C)CCC43)C2)OC(CO)C(O)C1O` (stereo in doubt; form 1) [listing 1 of 2 here], the PI (Pseudomonas aeruginosa [1]) is reported as 0.53 and 0.7 and the “No. of Colony forming Units” value (Pseudomonas aeruginosa [3]; 40 mg/kg) is reported as 5.67 and 7.5.

For `CC(C)CCCC(C)[C@H]1CC[C@H]2C3CC=C4C[C@@H](OCCCCCCS[C@@H]5O[C@@H](CO)[C@@H](O)[C@H](O)[C@H]5O)CC[C@]4(C)[C@H]3CC[C@]12C` (some centres not stated), the PI (Mus musculus [4]) was 4.81, the PI (Mus musculus [5]) was 9.52 and the PI (Mus musculus [6]) was 2.29. It also gave a PI (Mus musculus [7]) of 2.29, a Log PI [2] of 4.02 and a PI (Mus musculus [8]) of 2.59.

`CC(C)CCOC(=O)C1CCC2C3CC=C4CC(OCCCCCCSC5OC(CO)C(O)C(O)C5O)CCC4(C)C3CCC12C` (configuration not stated) showed a PI (Pseudomonas aeruginosa [1]) of 1.01.

`CC(C)CCCC(C)[C@H]1CC[C@H]2C3CC=C4C[C@@H](OCCCCCCS[C@@H]5O[C@@H](CO)[C@@H](O)[C@H](O)[C@@H]5O)CC[C@]4(C)[C@H]3CC[C@]12C` (stereo in doubt; form 2) gave a Log PI (Mus musculus [9]) of 0 and a Log PI [10] of 0.

Work on `CC(C)CCC[C@@H](C)[C@H]1CC[C@H]2[C@@H]3CC=C4C[C@@H](OCCCCCCS[C@@H]5O[C@@H](CO)[C@@H](O[C@@H]6O[C@@H](CO)[C@H](O)[C@H](O)[C@@H]6O)[C@H](O)[C@@H]5O)CC[C@]4(C)[C@H]3CC[C@]12C` yielded a PI (Pseudomonas aeruginosa [1]) of 3.5.

With `CC(C)CCCC(C)[C@H]1CC[C@H]2C3CC=C4C[C@@H](OCCCCCCS[C@H]5O[C@@H](CO)[C@@H](O)[C@H](O)[C@H]5O)CC[C@]4(C)[C@H]3CC[C@]12C` (some centres not stated) the Log PI [2] was 1.53.

With `CC(=O)N[C@@H]1C(O)O[C@@H](CO)[C@@H](O)[C@@H]1O[C@@H](C)C(=O)N[C@@H](C)C(=O)N[C@@H](CCC(=O)O)C(N)=O` (some centres not stated) the PI (Mus musculus [11]) was 1.87 and 1.31, the Log PI [2] was 0.27 and the PI (Mus musculus [12]) was 1.31.

In the case of `CC(C)CCCC(C)[C@H]1CC[C@H]2C3CC=C4C[C@@H](OCCCCCCS[C@@H]5O[C@@H](CO)[C@@H](O)[C@H](O)[C@@H]5O)CC[C@]4(C)[C@H]3CC[C@]12C` (stereo in doubt; form 1) [listing 2 of 2 here], the “No. of Colony forming Units” value (Mus musculus [13]) is reported as 76, the PI (Mus musculus [14]) is reported as 4.75 and the PI (Pseudomonas aeruginosa [1]) is reported as 0.53 and 0.94. The “No. of Colony forming Units” value (Pseudomonas aeruginosa [3]; 40 mg/kg) was 56.7 and 47 and 101 and the PI (Mus musculus [15]) was 2.94.

In the case of `COCC1OC(SCCCCCCOC2CCC3(C)C(=CCC4C3CCC3(C)C(C(C)CCCC(C)C)CCC43)C2)C(O)C(O)C1O` (configuration not stated), the PI (Pseudomonas aeruginosa [1]) is reported as 0.53.

For `CC(C)CCCC(C)C1CCC2C3CC=C4CC(OCCCCSC5OC(CO)C(O)C(O)C5O)CCC4(C)C3CCC12C` (configuration not stated), the PI (Pseudomonas aeruginosa [1]) was 0.84.

For `CC(=O)NC1C(SCCCCCCOC2CCC3(C)C(=CCC4C3CCC3(C)C(C(C)CCCC(C)C)CCC43)C2)OC(CO)C(O)C1O` (stereo in doubt; form 1) [listing 2 of 2 here], the Log PI (Mus musculus [9]) was 0.
